Laboratory results published in PMC9266004, “Potential Common Mechanisms of Cytotoxicity Induced by Amide Herbicides via TRPA1 Channel Activation” (International Journal of Environmental Research and Public …, 2022).

How the values were obtained:
[1] = system: TRPA1 mRNA in A549 cells; assay: RT-qPCR of TRPA1 mRNA; format: cell-based, human; settings: for TRPA1 mRNA expression with HC-030031 pre-treatment compared with AHs treatment alone: HC-030031 50 μM, AHs 150, 300, 600 μM; for expression of TRPA1 mRNA compared with 0 μM AHs: significant at one or more of 150, 300, 600 μM
Protocol: Wild-type (WT) and TRPA1-KO A549 cells were cultured in McCoy’s 5A Media and F-12K Nutrient Mixture containing 10% fetal bovine serum, respectively. WT/TRPA1-KO A549 cells (5 × 10^4 cells/mL) were seeded in 96-well (100 μL/well) and 6-well (2 mL/well) plates and incubated at 37 °C with 5% CO2 in a humidified incubator for 24 h. WT/TRPA1-KO A549 cells were treated with AHs gradient concentrations (0, 150, 300, 600, 1200 μM) prepared in methanol (1.2 M) for 24 h. […]
TRIzol Reagent (1 mL) was directly added to WT/TRPA1-KO A549 cells in 6-well plates and total RNA was extracted according to the manufacturer’s instructions. Total RNA was used for cDNA reverse transcription, which was performed according to the PrimeScript RT protocol with the following reaction conditions: 42 °C for 2 min, 4 °C for ∞ (removal of genomic DNA), 37 °C for 15 min, 85 °C for 5 s, and 4 °C for ∞ (reverse transcriptional reaction). RT-qPCR was performed according to the TB Green Premix Ex Taq II protocol. Primer sequences and product lengths were as follows: hTRPA1 (107 bp) forward primer 5′-[…]-3′, reverse primer 5′-[…]-3′; hβ-actin (184 bp) forward primer 5′-[…]-3′, reverse primer 5′-[…]-3′. RT-qPCR was performed using the CFX96 Real-Time System (Bio-Rad Laboratories, Hercules, CA, USA) using the following reaction conditions: 95 °C for 30 s, 40 cycles of 95 °C for 5 s, 60 °C for 30 s, and 72 °C for 30 s, followed by a melting curve from 65 to 95 °C in 0.5 °C/5 s increments. Calculations were performed using the CFX Manager^TM Version 1.0 software (Bio-Rad Laboratories Ltd., Hercules, CA, USA) and are represented as fold change in expression [2^ΔΔC(t)] on a linear scale.

[2] = system: TRPA1-KO A549 cells; assay: CCK-8 cell viability assay in TRPA1-KO A549 cells; format: cell-based, human; settings: for IC50: Homo sapiens, TRPA1-KO A549 cells, 24 h treatment, CCK-8, read-out: IC50 values of AHs, TRPA1-KO A549 Cells; for viability of TRPA1-KO A549 cells compared with AHs-treated WT cells: KO of TRPA1, AHs 150, 300, 600 μM
Protocol: The hTRPA1 gene sequence (Gene ID: 8989) was obtained from the National Center for Biotechnology Information (NCBI) website (https://www.ncbi.nlm.nih.gov/gene/8989 accessed on 26 May 2022). Three gRNA sequences, namely, T1: 5′-[…]-[…], T16: 5′-[…]-3′, and T20: 5′-[…]-3′, were designed using the CRISPR online design tool (http://crispr.mit.edu/ accessed on 26 May 2022). Transfection of cells with gRNA-Cas9 was validated in test cells. Cell pool examination was performed using Sanger sequencing. Sequencing and tracer analysis were performed using the online tool TIDE (https://tide-calculator.nki.nl/ accessed on 26 May 2022) to investigate the cleavage efficiency of T1, T16, and T20. Cells from the cell pool were diluted in 96-well plates. Clones were observed under a microscope and wells containing single cell clones were labeled. Single cell clones were transferred to 24-well plates for expansion. Validation of knockout (KO) clones was performed via sequencing to confirm insertion and deletion on the genomes of KO clone candidates. Furthermore, mycoplasmas were detected for cloned cells with high KO using the Mycoplasma PCR Detection Kit.
Wild-type (WT) and TRPA1-KO A549 cells were cultured in McCoy’s 5A Media and F-12K Nutrient Mixture containing 10% fetal bovine serum, respectively. WT/TRPA1-KO A549 cells (5 × 10^4 cells/mL) were seeded in 96-well (100 μL/well) and 6-well (2 mL/well) plates and incubated at 37 °C with 5% CO2 in a humidified incubator for 24 h. WT/TRPA1-KO A549 cells were treated with AHs gradient concentrations (0, 150, 300, 600, 1200 μM) prepared in methanol (1.2 M) for 24 h. Additionally, WT/TRPA1-KO A549 cells were pre-treated with TRPA1 special inhibitor HC-030031 (100 μM) for 0.5 h and then treated with AHs gradient concentrations for 24 h.
To conduct the cell viability assay, the growth medium was removed from WT/TRPA1-KO A549 cells cultured in a 96-well plate. CCK-8 reagent was mixed with complete medium (1:9 volume ratio), and 100 µL of the CCK-8 reagent mixture was added to each well. The plate was incubated for 4 h and the absorbance was measured at 450 nm using a microplate reader (BNR05740; Molecular Devices, Sunnyvale, CA, USA). The average absorbance from each sextuplicate set of wells was calculated and the background control value was subtracted from each absorbance value. The percentage cell viability was determined using the following equation:cell viability (%) = [(As − Ab)/(Ac − Ab)] × 100% where As is the absorbance of the experimental well (containing medium, CCK-8 reagent, cells, and compound); Ac is the absorbance of the control well (containing medium, CCK-8 reagent, and cells); and Ab is the absorbance of the blank well (containing medium and CCK-8 reagent).

[3] = target: hTRPA1 ARD recombinant protein (Homo sapiens, UniProt O75762); assay: LSPR binding analysis (OpenSPR, COOH chip); settings: for kon: read-out: association constant (ka); for koff: read-out: dissociation constant (kd)
Sequence of hTRPA1 ARD recombinant protein (O75762 62-609): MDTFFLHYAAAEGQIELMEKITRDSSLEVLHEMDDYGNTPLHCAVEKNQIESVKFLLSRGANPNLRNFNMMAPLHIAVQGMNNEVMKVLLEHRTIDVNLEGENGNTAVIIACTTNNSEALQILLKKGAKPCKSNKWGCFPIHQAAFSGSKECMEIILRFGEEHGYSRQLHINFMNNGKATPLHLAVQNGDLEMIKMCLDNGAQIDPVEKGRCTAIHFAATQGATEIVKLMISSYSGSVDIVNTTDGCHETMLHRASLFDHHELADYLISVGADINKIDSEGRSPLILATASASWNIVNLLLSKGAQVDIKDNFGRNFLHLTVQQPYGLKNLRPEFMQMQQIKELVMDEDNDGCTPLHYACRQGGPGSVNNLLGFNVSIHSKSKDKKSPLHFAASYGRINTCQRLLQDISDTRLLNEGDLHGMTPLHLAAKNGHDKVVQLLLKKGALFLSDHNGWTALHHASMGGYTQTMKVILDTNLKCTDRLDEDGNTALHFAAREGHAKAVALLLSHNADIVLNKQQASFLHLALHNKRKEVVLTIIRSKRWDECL
Protocol: The binding capacity of hTRPA1 ARD recombinant protein and AHs was determined by LSPR according to the OpenSPR (Nicoya Life Sciences, Kitchener, ON, Canada) operating procedure using the COOH chip. After the baseline signal was obtained, the sample was washed with 200 µL 80% isopropyl alcohol for 10 s, and 200 µL ethylcarbodiimide/N-hydroxysuccinimide solution was added. The sample loop was rinsed with phosphate-buffered saline (PBS). hTRPA1 (5 µL) was diluted with PBS, incubated for 4 min, and 200 µL blocking solution was added. […] Contact and dissociation time of analytes and protein were 240 s and 160 s, respectively. TraceDrawer software was applied to determine the association constant (ka), dissociation constant (kd), and affinity constant (KD) using a 1:1 model.

SMILES	TRPA1 mRNA expression with HC-030031 pre-treatment compared with AHs treatment alone [1]	expression of TRPA1 mRNA compared with 0 μM AHs [1]	IC50 [2]	viability of TRPA1-KO A549 cells compared with AHs-treated WT cells [2]	Kd [3]	kon [3]	koff [3]	association constant (ka) ([3]; 1:1 model, TraceDrawer)	dissociation constant (kd) ([3]; 1:1 model, TraceDrawer)
CCc1cccc(C)c1N(C(=O)CCl)C(C)COC (stereo not drawn) [Metolachlor, metolachlor]	significantly reduced	significantly increased	562 µM	significantly increased the viability	364 µM	112 M⁻¹ s⁻¹	0.0408 s⁻¹	–	–
CCCOCCN(C(=O)CCl)c1c(CC)cccc1CC [Pretilachlor, pretilachlor]	albeit not significantly	significantly increased	3670 µM	significantly increased the viability	309 µM	–	–	14.3 M⁻¹ s⁻¹	0.00443 s⁻¹
CCC(=O)Nc1ccc(Cl)c(Cl)c1 [Propanil, propanil]	significantly reduced	significantly increased	2560 µM	significantly increased the viability	16.2 µM	2390 M⁻¹ s⁻¹	0.0388 s⁻¹	–	–
